Tests used:
[1] = biological target: NUAK family SNF1-like kinase 1 (Homo sapiens) (UniProt O60285); assay: Inhibition of ARK5(h) at 10.0 µM in the Eurofins Kinase panel; details: Compound concentration 10.0 uM
[2] = biological target: Calcium/calmodulin-dependent protein kinase type 1G (Homo sapiens) (UniProt Q96NX5); assay: Inhibition of CaMKIgamma(h) at 10.0 µM in the Eurofins Kinase panel; details: Compound concentration 10.0 uM
[3] = biological target: CDK6/cyclin D3 (Homo sapiens) (UniProt P30281+Q00534); assay: Inhibition of CDK6/cyclinD3(h) at 10.0 µM in the Eurofins Kinase panel; assay type: protein-complex assay; details: Compound concentration 10.0 uM
[4] = biological target: CDK9/cyclin T1 (Homo sapiens) (UniProt O60563+P50750); assay: Inhibition of CDK9/cyclin T1(h) at 10.0 µM in the Eurofins Kinase panel; assay type: protein-complex assay; details: Compound concentration 10.0 uM
[5] = biological target: Casein kinase I isoform delta (Homo sapiens) (UniProt P48730); assay: Inhibition of CK1delta(h) at 10.0 µM in the Eurofins Kinase panel; details: Compound concentration 10.0 uM
[6] = biological target: Ephrin type-A receptor 4 (Homo sapiens) (UniProt P54764); assay: Inhibition of EphA4(h) at 10.0 µM in the Eurofins Kinase panel; details: Compound concentration 10.0 uM
[7] = biological target: Ephrin type-A receptor 7 (Homo sapiens) (UniProt Q15375); assay: Inhibition of EphA7(h) at 10.0 µM in the Eurofins Kinase panel; details: Compound concentration 10.0 uM
[8] = biological target: Ephrin type-A receptor 8 (Homo sapiens) (UniProt P29322); assay: Inhibition of EphA8(h) at 10.0 µM in the Eurofins Kinase panel; details: Compound concentration 10.0 uM
[9] = biological target: Cyclin-G-associated kinase (Homo sapiens) (UniProt O14976); assay: Inhibition of GAK(h) at 10.0 µM in the Eurofins Kinase panel; details: Compound concentration 10.0 uM
[10] = biological target: Beta-adrenergic receptor kinase 1 (Homo sapiens) (UniProt P25098); assay: Inhibition of GRK2(h) at 10.0 µM in the Eurofins Kinase panel; details: Compound concentration 10.0 uM
[11] = biological target: G protein-coupled receptor kinase 6 (Homo sapiens) (UniProt P43250); assay: Inhibition of GRK6(h) at 10.0 µM in the Eurofins Kinase panel; details: Compound concentration 10.0 uM
[12] = biological target: Serine/threonine-protein kinase 10 (Homo sapiens) (UniProt O94804); assay: Inhibition of LOK(h) at 10.0 µM in the Eurofins Kinase panel; details: Compound concentration 10.0 uM
[13] = biological target: Leukocyte tyrosine kinase receptor (Homo sapiens) (UniProt P29376); assay: Inhibition of LTK(h) at 10.0 µM in the Eurofins Kinase panel; details: Compound concentration 10.0 uM
[14] = biological target: MAP/microtubule affinity-regulating kinase 3 (Homo sapiens) (UniProt P27448); assay: Inhibition of MARK3(h) at 10.0 µM in the Eurofins Kinase panel; details: Compound concentration 10.0 uM
[15] = biological target: Misshapen-like kinase 1 (Homo sapiens) (UniProt Q8N4C8); assay: Inhibition of MINK(h) at 10.0 µM in the Eurofins Kinase panel; details: Compound concentration 10.0 uM
[16] = biological target: Serine/threonine-protein kinase 4 (Homo sapiens) (UniProt Q13043); assay: Inhibition of MST1(h) at 10.0 µM in the Eurofins Kinase panel; details: Compound concentration 10.0 uM
[17] = biological target: Serine/threonine-protein kinase 24 (Homo sapiens) (UniProt Q9Y6E0); assay: Inhibition of MST3(h) at 10.0 µM in the Eurofins Kinase panel; details: Compound concentration 10.0 uM
[18] = biological target: Myosin light chain kinase 2, skeletal/cardiac muscle (Homo sapiens) (UniProt Q9H1R3); assay: Inhibition of MYLK2(h) at 10.0 µM in the Eurofins Kinase panel; details: Compound concentration 10.0 uM
[19] = biological target: Serine/threonine-protein kinase PAK 4 (Homo sapiens) (UniProt O96013); assay: Inhibition of PAK4(h) at 10.0 µM in the Eurofins Kinase panel; details: Compound concentration 10.0 uM
[20] = biological target: Serine/threonine-protein kinase pim-3 (Homo sapiens) (UniProt Q86V86); assay: Inhibition of Pim-3(h) at 10.0 µM in the Eurofins Kinase panel; details: Compound concentration 10.0 uM
[21] = biological target: Protein kinase C iota type (Homo sapiens) (UniProt P41743); assay: Inhibition of PKCiota(h) at 10.0 µM in the Eurofins Kinase panel; details: Compound concentration 10.0 uM
[22] = biological target: Protein kinase C zeta type (Homo sapiens) (UniProt Q05513); assay: Inhibition of PKCzeta(h) at 10.0 µM in the Eurofins Kinase panel; details: Compound concentration 10.0 uM
[23] = biological target: Proto-oncogene tyrosine-protein kinase receptor Ret (Homo sapiens) (UniProt P07949); assay: Inhibition of Ret(h) at 10.0 µM in the Eurofins Kinase panel; details: Compound concentration 10.0 uM
[24] = biological target: Receptor-interacting serine/threonine-protein kinase 1 (Homo sapiens) (UniProt Q13546); assay: Inhibition of RIPK1(h) at 10.0 µM in the Eurofins Kinase panel; details: Compound concentration 10.0 uM
[25] = biological target: Macrophage-stimulating protein receptor (Homo sapiens) (UniProt Q04912); assay: Inhibition of Ron(h) at 10.0 µM in the Eurofins Kinase panel; details: Compound concentration 10.0 uM
[26] = biological target: Serine/threonine-protein kinase 32C (Homo sapiens) (UniProt Q86UX6); assay: Inhibition of STK32C(h) at 10.0 µM in the Eurofins Kinase panel; details: Compound concentration 10.0 uM
[27] = biological target: Tau-tubulin kinase 2 (Homo sapiens) (UniProt Q6IQ55); assay: Inhibition of TTBK2(h) at 10.0 µM in the Eurofins Kinase panel; details: Compound concentration 10.0 uM
[28] = biological target: 5-hydroxytryptamine receptor 2A (Homo sapiens) (UniProt P28223); details: Compound concentration 10.0 uM
[29] = biological target: T1, Alpha-2C adrenergic receptor (Homo sapiens) (UniProt P18825); details: Compound concentration 10.0 uM
T1 sequence (whole entry): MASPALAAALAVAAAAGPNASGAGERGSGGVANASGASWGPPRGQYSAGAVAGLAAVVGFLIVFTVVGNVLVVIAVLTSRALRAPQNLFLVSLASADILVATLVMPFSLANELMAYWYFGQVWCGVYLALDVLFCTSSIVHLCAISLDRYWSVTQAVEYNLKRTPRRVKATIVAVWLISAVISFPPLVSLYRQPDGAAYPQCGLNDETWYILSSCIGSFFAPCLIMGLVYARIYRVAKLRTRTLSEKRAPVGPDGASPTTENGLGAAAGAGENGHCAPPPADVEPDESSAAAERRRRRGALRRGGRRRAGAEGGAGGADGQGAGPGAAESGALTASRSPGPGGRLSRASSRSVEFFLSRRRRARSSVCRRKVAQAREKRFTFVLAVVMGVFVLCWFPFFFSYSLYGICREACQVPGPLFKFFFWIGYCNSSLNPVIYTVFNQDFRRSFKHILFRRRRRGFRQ

[30] = biological target: Sigma non-opioid intracellular receptor 1 (Homo sapiens) (UniProt Q99720); details: Compound concentration 10.0 uM
[31] = biological target: GABA-A receptor; anion channel (Rattus norvegicus) (UniProt O09028+P15431+P18506+P18508+P19969+P20236+P23574+P23576+P28471+P28473+P30191+P62813+P63079+P63138+Q91ZM7+Q9ES14); details: Compound concentration 10.0 uM
[32] = biological target: Insulin receptor (Homo sapiens) (UniProt P06213); details: Rattus norvegicus; Compound concentration 10.0 uM
[33] = biological target: Vasopressin V1a receptor (Homo sapiens, UniProt P37288)
Vasopressin V1a receptor, sequence (P37288 whole entry, looked up): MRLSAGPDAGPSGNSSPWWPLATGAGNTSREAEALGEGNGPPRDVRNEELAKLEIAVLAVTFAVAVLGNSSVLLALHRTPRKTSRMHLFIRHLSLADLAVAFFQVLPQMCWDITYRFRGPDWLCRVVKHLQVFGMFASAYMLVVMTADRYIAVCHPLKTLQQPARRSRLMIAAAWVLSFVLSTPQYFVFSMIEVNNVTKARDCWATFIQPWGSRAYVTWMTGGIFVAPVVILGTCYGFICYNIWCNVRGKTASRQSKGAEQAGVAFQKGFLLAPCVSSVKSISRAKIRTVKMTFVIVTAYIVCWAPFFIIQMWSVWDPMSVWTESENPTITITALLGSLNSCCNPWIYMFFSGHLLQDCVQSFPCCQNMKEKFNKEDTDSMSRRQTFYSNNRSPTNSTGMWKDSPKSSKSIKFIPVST

5-hydroxytryptamine receptor 2A (Homo sapiens), sequence (P28223 whole entry): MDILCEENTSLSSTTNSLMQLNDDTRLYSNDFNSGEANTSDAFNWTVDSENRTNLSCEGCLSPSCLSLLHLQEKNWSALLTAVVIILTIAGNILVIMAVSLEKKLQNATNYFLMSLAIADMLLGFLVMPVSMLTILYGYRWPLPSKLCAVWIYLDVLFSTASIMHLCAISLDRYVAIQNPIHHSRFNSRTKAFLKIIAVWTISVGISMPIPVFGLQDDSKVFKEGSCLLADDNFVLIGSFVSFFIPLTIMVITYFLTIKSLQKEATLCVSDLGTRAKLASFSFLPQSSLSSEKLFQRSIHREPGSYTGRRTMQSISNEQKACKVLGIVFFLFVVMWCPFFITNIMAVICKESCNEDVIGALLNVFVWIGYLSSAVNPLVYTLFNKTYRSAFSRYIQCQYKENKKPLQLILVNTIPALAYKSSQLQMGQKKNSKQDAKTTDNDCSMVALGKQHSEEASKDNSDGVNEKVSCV
Sigma non-opioid intracellular receptor 1 (Homo sapiens), sequence (Q99720 whole entry): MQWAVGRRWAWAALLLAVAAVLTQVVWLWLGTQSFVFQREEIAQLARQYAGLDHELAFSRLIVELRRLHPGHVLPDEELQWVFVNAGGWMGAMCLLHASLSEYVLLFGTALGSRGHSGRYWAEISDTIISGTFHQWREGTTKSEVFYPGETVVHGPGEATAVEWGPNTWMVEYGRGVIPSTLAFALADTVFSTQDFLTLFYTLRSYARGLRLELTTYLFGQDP
Serine/threonine-protein kinase PAK 4 (Homo sapiens), sequence (O96013 whole entry, looked up): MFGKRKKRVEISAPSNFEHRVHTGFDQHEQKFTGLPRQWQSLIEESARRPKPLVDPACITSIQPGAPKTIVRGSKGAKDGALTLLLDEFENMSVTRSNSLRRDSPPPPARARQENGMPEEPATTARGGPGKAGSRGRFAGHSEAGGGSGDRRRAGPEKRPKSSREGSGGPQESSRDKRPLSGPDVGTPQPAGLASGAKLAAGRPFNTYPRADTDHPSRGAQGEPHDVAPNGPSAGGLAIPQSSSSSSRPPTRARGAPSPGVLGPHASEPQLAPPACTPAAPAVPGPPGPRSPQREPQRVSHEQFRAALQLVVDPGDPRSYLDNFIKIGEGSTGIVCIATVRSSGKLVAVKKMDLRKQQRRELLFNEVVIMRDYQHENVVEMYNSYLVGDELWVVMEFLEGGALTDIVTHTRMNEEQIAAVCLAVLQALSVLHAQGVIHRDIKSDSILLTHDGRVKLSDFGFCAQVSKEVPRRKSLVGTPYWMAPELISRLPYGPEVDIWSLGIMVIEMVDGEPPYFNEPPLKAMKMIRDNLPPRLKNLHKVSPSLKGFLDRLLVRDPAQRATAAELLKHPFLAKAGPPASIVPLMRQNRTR
Protein kinase C zeta type (Homo sapiens), sequence (Q05513 whole entry): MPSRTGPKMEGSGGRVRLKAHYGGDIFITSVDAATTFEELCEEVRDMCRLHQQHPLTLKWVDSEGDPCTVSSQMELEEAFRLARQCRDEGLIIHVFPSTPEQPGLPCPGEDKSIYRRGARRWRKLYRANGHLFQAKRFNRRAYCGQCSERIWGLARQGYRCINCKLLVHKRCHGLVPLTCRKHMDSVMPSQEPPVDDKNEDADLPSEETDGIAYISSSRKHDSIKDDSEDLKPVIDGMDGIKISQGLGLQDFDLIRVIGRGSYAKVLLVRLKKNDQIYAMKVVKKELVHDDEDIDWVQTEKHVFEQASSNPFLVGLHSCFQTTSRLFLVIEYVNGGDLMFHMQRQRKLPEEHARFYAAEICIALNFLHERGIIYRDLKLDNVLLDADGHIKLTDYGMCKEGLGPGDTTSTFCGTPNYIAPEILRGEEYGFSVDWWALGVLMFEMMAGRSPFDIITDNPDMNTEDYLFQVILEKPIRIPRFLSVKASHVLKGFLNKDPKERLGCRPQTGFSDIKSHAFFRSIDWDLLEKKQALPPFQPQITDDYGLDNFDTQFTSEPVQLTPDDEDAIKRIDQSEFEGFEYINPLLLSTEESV
Serine/threonine-protein kinase 32C (Homo sapiens), sequence (Q86UX6 whole entry): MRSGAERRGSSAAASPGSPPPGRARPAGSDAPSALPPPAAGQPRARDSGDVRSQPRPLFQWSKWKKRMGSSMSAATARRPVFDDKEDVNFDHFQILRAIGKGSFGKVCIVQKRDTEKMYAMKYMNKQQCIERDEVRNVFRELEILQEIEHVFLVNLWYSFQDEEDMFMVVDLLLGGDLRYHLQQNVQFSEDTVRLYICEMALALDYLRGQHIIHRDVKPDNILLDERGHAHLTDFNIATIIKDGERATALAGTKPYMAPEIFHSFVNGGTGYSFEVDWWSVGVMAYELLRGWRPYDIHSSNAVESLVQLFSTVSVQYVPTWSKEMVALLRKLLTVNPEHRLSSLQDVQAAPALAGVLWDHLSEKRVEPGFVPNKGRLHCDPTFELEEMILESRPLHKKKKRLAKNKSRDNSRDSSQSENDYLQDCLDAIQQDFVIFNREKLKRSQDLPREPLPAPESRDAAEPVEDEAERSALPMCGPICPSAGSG
Receptor-interacting serine/threonine-protein kinase 1 (Homo sapiens), sequence (Q13546 whole entry): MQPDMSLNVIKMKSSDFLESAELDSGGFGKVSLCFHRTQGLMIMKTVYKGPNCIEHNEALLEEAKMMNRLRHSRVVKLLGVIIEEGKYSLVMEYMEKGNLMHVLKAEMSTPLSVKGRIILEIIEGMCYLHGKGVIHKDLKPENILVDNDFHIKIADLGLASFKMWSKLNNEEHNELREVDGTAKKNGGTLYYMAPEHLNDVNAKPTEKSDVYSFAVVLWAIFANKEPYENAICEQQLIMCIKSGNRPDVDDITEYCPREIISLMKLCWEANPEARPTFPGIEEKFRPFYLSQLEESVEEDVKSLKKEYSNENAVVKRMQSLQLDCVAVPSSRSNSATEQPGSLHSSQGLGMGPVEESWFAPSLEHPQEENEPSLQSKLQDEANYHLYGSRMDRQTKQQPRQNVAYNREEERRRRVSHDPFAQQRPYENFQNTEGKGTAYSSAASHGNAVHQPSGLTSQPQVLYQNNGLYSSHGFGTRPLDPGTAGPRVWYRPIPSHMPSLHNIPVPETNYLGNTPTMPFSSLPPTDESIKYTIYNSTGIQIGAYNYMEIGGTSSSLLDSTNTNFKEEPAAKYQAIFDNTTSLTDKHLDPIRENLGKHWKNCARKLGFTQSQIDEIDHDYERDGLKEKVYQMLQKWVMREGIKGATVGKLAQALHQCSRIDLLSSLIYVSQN
NUAK family SNF1-like kinase 1 (Homo sapiens), sequence (O60285 whole entry): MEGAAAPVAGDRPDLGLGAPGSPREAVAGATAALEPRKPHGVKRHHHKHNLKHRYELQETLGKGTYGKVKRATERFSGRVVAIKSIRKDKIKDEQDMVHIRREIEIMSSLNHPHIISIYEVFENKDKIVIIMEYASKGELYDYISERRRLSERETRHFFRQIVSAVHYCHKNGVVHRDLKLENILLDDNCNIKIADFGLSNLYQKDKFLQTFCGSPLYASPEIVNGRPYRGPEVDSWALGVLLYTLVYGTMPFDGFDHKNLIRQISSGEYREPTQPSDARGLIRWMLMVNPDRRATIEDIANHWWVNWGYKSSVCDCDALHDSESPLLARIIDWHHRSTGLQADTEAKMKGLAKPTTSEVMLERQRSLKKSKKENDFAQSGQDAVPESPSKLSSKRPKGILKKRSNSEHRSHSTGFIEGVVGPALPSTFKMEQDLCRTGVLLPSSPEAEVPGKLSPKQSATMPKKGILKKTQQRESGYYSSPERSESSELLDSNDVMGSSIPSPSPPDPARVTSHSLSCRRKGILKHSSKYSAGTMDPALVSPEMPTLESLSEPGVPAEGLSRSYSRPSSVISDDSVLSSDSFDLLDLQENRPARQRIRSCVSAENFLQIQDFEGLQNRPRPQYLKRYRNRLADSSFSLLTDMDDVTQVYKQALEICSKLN
Serine/threonine-protein kinase 4 (Homo sapiens), sequence (Q13043 whole entry): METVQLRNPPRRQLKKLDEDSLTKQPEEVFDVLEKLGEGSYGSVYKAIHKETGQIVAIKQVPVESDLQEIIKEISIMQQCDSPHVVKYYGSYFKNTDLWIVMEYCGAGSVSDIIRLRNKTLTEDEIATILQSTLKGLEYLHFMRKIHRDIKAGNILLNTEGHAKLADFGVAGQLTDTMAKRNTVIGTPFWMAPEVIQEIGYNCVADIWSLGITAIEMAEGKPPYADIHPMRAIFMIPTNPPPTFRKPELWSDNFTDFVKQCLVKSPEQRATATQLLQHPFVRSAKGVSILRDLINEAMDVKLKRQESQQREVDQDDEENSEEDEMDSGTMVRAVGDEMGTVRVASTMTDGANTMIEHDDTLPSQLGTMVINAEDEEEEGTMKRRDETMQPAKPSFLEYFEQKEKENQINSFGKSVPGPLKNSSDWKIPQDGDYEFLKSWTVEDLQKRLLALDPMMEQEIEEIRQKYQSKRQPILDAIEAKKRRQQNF

SMILES | inhibition [1] [%] | inhibition [2] [%] | inhibition [3] [%] | inhibition [4] [%] | inhibition [5] [%] | inhibition [6] [%] | inhibition [7] [%] | inhibition [8] [%] | inhibition [9] [%] | inhibition [10] [%] | inhibition [11] [%] | inhibition [12] [%] | inhibition [13] [%] | inhibition [14] [%] | inhibition [15] [%] | inhibition [16] [%] | inhibition [17] [%] | inhibition [18] [%] | inhibition [19] [%] | inhibition [20] [%] | also measured
O=c1n(Cc2cncn2-c2cccc(Cl)c2)nc(-c2ccc(Cl)cc2)n1C[C@H](O)C(F)(F)F | -2.39 | 0.71 | 0.27 | -1.79 | -5.22 | 0.23 | 3.37 | 3.67 | 0.33 | -6.21 | -0.21 | 10.4 | 5.77 | -3.59 | 5.6 | 2.53 | 5.64 | 3.49 | -2.41 | 4.9 | inhibition [21]: 0.21%; inhibition [22]: 8.34%; inhibition [23]: -9.37%; inhibition [24]: 2.04%; inhibition [25]: -7.87%; inhibition [26]: -2.95%; inhibition [27]: -2.08%; inhibition [28]: -2.02%; inhibition [29]: -9.85%; inhibition [30]: 24.1%; inhibition [31]: 12%; inhibition [32]: 1%; inhibition ([33]; Compound concentration 10.0 uM): 28%
C[C@H](O)c1nc(Cn2nc(-c3ccc(Cl)cc3)n(C[C@H](O)C(F)(F)F)c2=O)nn1-c1cccc(Cl)c1 [PECAVAPTAN] | -3.57 | -0.43 | -0.62 | -3.05 | -3.11 | -0.37 | 4.11 | 4.55 | 10.4 | 5.86 | 1.15 | 2.48 | 4.2 | -2.13 | 5.2 | 9.3 | 3.02 | 3.01 | -1.84 | 3.06 | inhibition [21]: -3.93%; inhibition [22]: 18.7%; inhibition [23]: -9.36%; inhibition [24]: 0.69%; inhibition [25]: -9.41%; inhibition [26]: 1.11%; inhibition [27]: -8.61%; inhibition [28]: 0.62%; inhibition [29]: -2.74%; inhibition [30]: 27%; inhibition [31]: 30%; inhibition [32]: -1%; inhibition ([33]; Compound concentration 0.01 uM): 65%
